For one assay, the target named is T1, RSK2 (Homo sapiens, UniProt P51812).
T1 construct: evaluate the effects of the compounds of the present disclosure on the expression of target proteins in cells; endogenous in cells; host or cells: hPBMC
Briefly: Western blot degradation of RSK2 (hPBMC). It is filed as cell-based. Particulars: Table D8. On the procedure:
(§1) Conventional Western blot assay was performed to evaluate the effects of the compounds of the present disclosure on the expression of target proteins in cells.
(§2) (1) Cell Seeding and Protein Harvesting: The selected cells were processed according to the cell seeding procedure and protein harvesting procedure in Table III-2. Table III-2 Cell Seeding and Protein Harvesting Procedures
(§3) (2) To the collected supernatant, 5X SDS sample loading buffer was added, followed by denaturation at 95°C for 5 minutes. The denatured samples were then separated by SDS-PAGE electrophoresis on a polyacrylamide gel. Proteins were transferred to a nitrocellulose membrane (0.45 µm NC membrane), blocked with blocking buffer at room temperature for 1 hour, and subjected to antibody incubation and development procedures according to the antibody manufacturer's instructions (Cell Signaling Technology).
(§4) Half-Maximal Degradation Concentration value (the drug concentration required for degrading proteins by 50%, abbreviated as DC50) reads method: comparing the grayscale values of Western blot bands from drug-treated samples with those from blank DMSO-treated controls, and identifying the drug concentration range at which the grayscale value is half that of the DMSO-treated control bands.
(§5) DC50 values can be calculated using ImageJ software to measure grayscale values of Western blot bands from drug-treated samples. The concentration-response curve is fitted to estimate the drug concentration corresponding to half the grayscale value.
(§6) Target protein remaining (%) refers to the percentage of target protein remaining in hPBMC cells after treatment with protein degrader compounds.
(§7) Calculation method for target protein remaining (%): Use ImageJ software to measure grayscale values of Western blot bands from drug (protein degrader)-treated samples. The grayscale value of drug-treated bands is divided by that of internal control protein bands, and the resulting quotient is normalized to obtain the relative percentage of remaining target protein after protein degrader treatment.
(§8) Target protein degradation rate (%) = 100% - target protein remaining (%).

A further assay addresses T2, RSK1 (Homo sapiens, UniProt Q15418).
T2 construct: evaluate the effects of the compounds of the present disclosure on the expression of target proteins in cells; endogenous in cells; host or cells: hPBMC
Briefly: Western blot degradation of RSK1 (hPBMC). Particulars: Table D8. The format is cell-based. On the procedure: as §1, §2, §3, §4, §5, §6, §7, §8

T2 sequence (Q15418 whole entry): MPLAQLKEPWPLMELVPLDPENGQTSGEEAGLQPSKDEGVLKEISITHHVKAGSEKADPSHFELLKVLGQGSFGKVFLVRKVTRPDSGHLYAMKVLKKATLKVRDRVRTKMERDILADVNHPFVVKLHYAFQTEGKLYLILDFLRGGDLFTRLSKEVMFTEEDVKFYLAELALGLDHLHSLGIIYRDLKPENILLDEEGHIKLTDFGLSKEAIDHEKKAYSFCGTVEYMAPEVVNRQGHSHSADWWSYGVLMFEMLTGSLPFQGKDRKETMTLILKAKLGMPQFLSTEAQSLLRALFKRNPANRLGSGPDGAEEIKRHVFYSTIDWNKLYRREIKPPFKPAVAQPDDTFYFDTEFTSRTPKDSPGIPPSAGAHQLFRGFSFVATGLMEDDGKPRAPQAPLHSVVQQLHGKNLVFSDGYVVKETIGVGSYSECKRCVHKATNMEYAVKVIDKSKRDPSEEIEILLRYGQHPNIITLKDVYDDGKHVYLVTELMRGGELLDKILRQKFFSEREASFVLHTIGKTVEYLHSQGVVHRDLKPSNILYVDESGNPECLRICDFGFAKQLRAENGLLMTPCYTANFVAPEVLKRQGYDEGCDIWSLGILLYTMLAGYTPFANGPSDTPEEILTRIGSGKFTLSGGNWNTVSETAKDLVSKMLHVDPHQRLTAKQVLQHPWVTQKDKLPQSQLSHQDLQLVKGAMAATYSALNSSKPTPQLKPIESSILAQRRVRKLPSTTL
T1 sequence (P51812 whole entry): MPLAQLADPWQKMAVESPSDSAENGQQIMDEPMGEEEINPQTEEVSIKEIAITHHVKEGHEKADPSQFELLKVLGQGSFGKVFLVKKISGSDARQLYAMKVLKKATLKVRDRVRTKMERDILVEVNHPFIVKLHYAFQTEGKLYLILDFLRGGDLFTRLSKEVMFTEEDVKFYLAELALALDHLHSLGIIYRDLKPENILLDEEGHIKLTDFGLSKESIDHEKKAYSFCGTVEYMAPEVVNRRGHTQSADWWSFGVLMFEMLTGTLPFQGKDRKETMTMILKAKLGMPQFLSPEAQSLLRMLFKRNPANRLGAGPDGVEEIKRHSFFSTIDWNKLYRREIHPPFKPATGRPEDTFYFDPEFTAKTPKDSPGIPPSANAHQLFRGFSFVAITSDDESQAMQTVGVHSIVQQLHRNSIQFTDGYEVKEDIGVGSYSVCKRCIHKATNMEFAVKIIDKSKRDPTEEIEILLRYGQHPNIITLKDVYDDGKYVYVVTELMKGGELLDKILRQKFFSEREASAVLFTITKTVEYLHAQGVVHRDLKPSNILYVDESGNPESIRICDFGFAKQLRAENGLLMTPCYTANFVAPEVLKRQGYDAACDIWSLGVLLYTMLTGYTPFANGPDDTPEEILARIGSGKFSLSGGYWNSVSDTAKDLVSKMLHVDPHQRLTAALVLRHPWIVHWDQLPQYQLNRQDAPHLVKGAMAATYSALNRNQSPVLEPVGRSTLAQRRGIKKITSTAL

As for `C[C@@H]1CNC(=O)c2cc3ccc(C(=O)Nc4cnn(Cc5ccc(N6CCC(N7CCN(Cc8ccc(N9CCC(=O)NC9=O)nc8)CC7)CC6)cc5)c4)nc3n21` [GT-07955, (R)-N-(1-(4-(4-(4-((6-(2,4-dioxotetrahydropyrimidin-1(2H)-yl)pyridin-3-yl)methyl)piperazin-1-yl)piperidin-1-yl)benzyl)-1H-pyrazol-4-yl)-9-methyl-6-oxo-6,7,8,9-tetrahydropyrido[3',2':4,5]pyrrolo[1,2-a]pyrazine-2-carboxamide], on RSK2, the “Degradation of substrate protein RSK2 (substrate protein remaining %)” value is recorded as “A (A is defined as 0% ≤ substrate protein remaining % ≤ 80%)”. In addition, at RSK1, the “Degradation of substrate protein RSK1 (substrate protein remaining %)” value is “A (A is defined as 0% ≤ substrate protein remaining % ≤ 80%)”.

For `C[C@@H]1CNC(=O)c2cc3ccc(C(=O)Nc4cnn(Cc5ccc(N6CCC(N(C)Cc7ccc(C8CCC(=O)NC8=O)cc7)CC6)cc5)c4)nc3n21` (stereo partly drawn) [GT-07937, (9R)-N-(1-(4-(4-((4-(2,6-dioxopiperidin-3-yl)benzyl)(methyl)amino)piperidin-1-yl)benzyl)-1H-pyrazol-4-yl)-9-methyl-6-oxo-6,7,8,9-tetrahydropyrido[3',2':4,5]py rrolo[1,2-a]pyrazine-2-carboxamide], the “Degradation of substrate protein RSK2 (substrate protein remaining %)” value on RSK2 is listed as “B (B is defined as substrate protein remaining % > 80%)”. Further, the “Degradation of substrate protein RSK1 (substrate protein remaining %)” value at RSK1 is recorded as “A (A is defined as 0% ≤ substrate protein remaining % ≤ 80%)”.

In the case of `C[C@@H]1CNC(=O)c2cc3ccc(C(=O)Nc4cnn(Cc5ccc(N6CCC(N7CCN(Cc8ccnc(N9CCC(=O)NC9=O)c8)CC7)CC6)cc5)c4)nc3n21` [GT-07958, (R)-N-(1-(4-(4-(4-((2-(2,4-dioxotetrahydropyrimidin-1(2H)-yl)pyridin-4-yl)methyl)piperazin-1-yl)piperidin-1-yl)benzyl)-1H-pyrazol-4-yl)-9-methyl-6-oxo-6,7,8,9-tetrahydropyrido[3',2':4,5]pyrrolo[1,2-a]pyrazine-2-carboxamide], the “Degradation of substrate protein RSK2 (substrate protein remaining %)” value on RSK2 is “A (A is defined as 0% ≤ substrate protein remaining % ≤ 80%)”. The “Degradation of substrate protein RSK1 (substrate protein remaining %)” value on RSK1 was “A (A is defined as 0% ≤ substrate protein remaining % ≤ 80%)”.

`C[C@@H]1CNC(=O)c2cc3ccc(C(=O)Nc4cnn(Cc5ccc(N6CCC(N(C)Cc7cccc(NC8CCC(=O)NC8=O)c7)CC6)cc5)c4)nc3n21` (stereo partly drawn) [GT-07942, (9R)-N-(1-(4-(4-((3-((2,6-dioxopiperidin-3-yl)amino)benzyl)(methyl)amino)piperidin-1-yl)benzyl)-1H-pyrazol-4-yl)-9-methyl-6-oxo-6,7,8,9-tetrahydropyrido[3',2':4,5]py rrolo[1,2-a]pyrazine-2-carboxamide]: the “Degradation of substrate protein RSK2 (substrate protein remaining %)” value on RSK2 is on record as “A (A is defined as 0% ≤ substrate protein remaining % ≤ 80%)”. Besides, the “Degradation of substrate protein RSK1 (substrate protein remaining %)” value on RSK1 is recorded as “A (A is defined as 0% ≤ substrate protein remaining % ≤ 80%)”.

In the case of `C[C@@H]1CNC(=O)c2cc3ccc(C(=O)Nc4cnn(Cc5ccc(N6CCC(N7CCN(Cc8cnc(N9CCC(=O)NC9=O)cn8)CC7)CC6)cc5)c4)nc3n21` [GT-07963, (R)-N-(1-(4-(4-(4-((5-(2,4-dioxotetrahydropyrimidin-1(2H)-yl)pyrazin-2-yl)methyl)piperazin-1-yl)piperidin-1-yl)benzyl)-1H-pyrazol-4-yl)-9-methyl-6-oxo-6,7,8,9-tetrahydropyrido[3',2':4,5]pyrrolo[1,2-a]pyrazine-2-carboxamide], the “Degradation of substrate protein RSK2 (substrate protein remaining %)” value on RSK2 was “A (A is defined as 0% ≤ substrate protein remaining % ≤ 80%)”. For the same molecule, the “Degradation of substrate protein RSK1 (substrate protein remaining %)” value at RSK1 was “A (A is defined as 0% ≤ substrate protein remaining % ≤ 80%)”.

With `C[C@@H]1CNC(=O)c2cc3ccc(C(=O)Nc4cnn(Cc5ccc(N6CCC(N(C)Cc7cc(N8CCC(=O)NC8=O)cnc7F)CC6)cc5)c4)nc3n21` [GT-07949, (R)-N-(1-(4-(4-(((5-(2,4-dioxotetrahydropyrimidin-1(2H)-yl)-2-fluoropyridin-3-yl)methyl)(methyl)amino)piperidin-1-yl)benzyl)-1H-pyrazol-4-yl)-9-methyl-6-oxo-6,7,8,9-tetrahydropyrido[3',2':4,5]py rrolo[1,2-a]pyrazine-2-carboxamide], the “Degradation of substrate protein RSK2 (substrate protein remaining %)” value on RSK2 is “A (A is defined as 0% ≤ substrate protein remaining % ≤ 80%)”. In addition, the “Degradation of substrate protein RSK1 (substrate protein remaining %)” value on RSK1 was “A (A is defined as 0% ≤ substrate protein remaining % ≤ 80%)”.

As to `C[C@@H]1CNC(=O)c2cc3ccc(C(=O)Nc4cnn(Cc5ccc(N6CCN(Cc7cnc(N8CCC(=O)NC8=O)cn7)CC6)cc5)c4)nc3n21` [GT-07936, (R)-N-(1-(4-(4-((5-(2,4-dioxotetrahydropyrimidin-1(2H)-yl)pyrazin-2-yl)methyl)piperazin-1-yl)benzyl)-1H-pyrazol-4-yl)-9-methyl-6-oxo-6,7,8,9-tetrahydropyrido[3',2':4,5]py rrolo[1,2-a]pyrazine-2-carboxamide], on RSK2, the “Degradation of substrate protein RSK2 (substrate protein remaining %)” value is “B (B is defined as substrate protein remaining % > 80%)”. The “Degradation of substrate protein RSK1 (substrate protein remaining %)” value at RSK1 is given as “A (A is defined as 0% ≤ substrate protein remaining % ≤ 80%)”.

In the case of `C[C@@H]1CNC(=O)c2cc3ccc(C(=O)Nc4cnn(Cc5ccc(N6CCC(N(C)Cc7cncc(C8CCC(=O)NC8=O)c7)CC6)cc5)c4)nc3n21` (stereo partly drawn) [GT-07948, (9R)-N-(1-(4-(4-(((5-(2,6-dioxopiperidin-3-yl)pyridin-3-yl)methyl)(methyl)amino)piperidin-1-yl)benzyl)-1H-pyrazol-4-yl)-9-methyl-6-oxo-6,7,8,9-tetrahydropyrido[3',2':4,5]py rrolo[1,2-a]pyrazine-2-carboxamide], the “Degradation of substrate protein RSK2 (substrate protein remaining %)” value on RSK2 is “A (A is defined as 0% ≤ substrate protein remaining % ≤ 80%)”. Further, at RSK1, the “Degradation of substrate protein RSK1 (substrate protein remaining %)” value is “A (A is defined as 0% ≤ substrate protein remaining % ≤ 80%)”.

On to `C[C@@H]1CNC(=O)c2cc3ccc(C(=O)Nc4cnn(Cc5ccc(N6CCN(Cc7ccc(N8CCC(=O)NC8=O)cc7)CC6)cc5)c4)nc3n21` [GT-07927, (R)-N-(1-(4-(4-(4-(2,4-dioxotetrahydropyrimidin-1(2H)-yl)benzyl)piperazin-1-yl)benzyl)-1H-pyrazol-4-yl)-9-methyl-6-oxo-6,7,8,9-tetrahydropyrido[3',2':4,5]py rrolo[1,2-a]pyrazine-2-carboxamide], for which the “Degradation of substrate protein RSK2 (substrate protein remaining %)” value on RSK2 is given as “A (A is defined as 0% ≤ substrate protein remaining % ≤ 80%)”. Besides, the “Degradation of substrate protein RSK1 (substrate protein remaining %)” value on RSK1 was “A (A is defined as 0% ≤ substrate protein remaining % ≤ 80%)”.

In the case of `C[C@@H]1CNC(=O)c2cc3ccc(C(=O)Nc4cnn(Cc5ccc(N6CCN(Cc7cc(C8CCC(=O)NC8=O)cnc7F)CC6)cc5)c4)nc3n21` (stereo partly drawn) [GT-07932, (9R)-N-(1-(4-(4-((5-(2,6-dioxopiperidin-3-yl)-2-fluoropyridin-3-yl)methyl)piperazin-1-yl)benzyl)-1H-pyrazol-4-yl)-9-methyl-6-oxo-6,7,8,9-tetrahydropyrido[3',2':4,5]py rrolo[1,2-a]pyrazine-2-carboxamide], the “Degradation of substrate protein RSK2 (substrate protein remaining %)” value on RSK2 is given as “B (B is defined as substrate protein remaining % > 80%)”. For the same molecule, the “Degradation of substrate protein RSK1 (substrate protein remaining %)” value at RSK1 is reported as “A (A is defined as 0% ≤ substrate protein remaining % ≤ 80%)”.

Regarding `C[C@@H]1CNC(=O)c2cc3ccc(C(=O)Nc4cnn(Cc5ccc(N6CCC(N(C)Cc7cncc(N8CCC(=O)NC8=O)c7)CC6)cc5)c4)nc3n21` [GT-07945, (R)-N-(1-(4-(4-(((5-(2,4-dioxotetrahydropyrimidin-1(2H)-yl)pyridin-3-yl)methyl)(methyl)amino)piperidin-1-yl)benzyl)-1H-pyrazol-4-yl)-9-methyl-6-oxo-6,7,8,9-tetrahydropyrido[3',2':4,5]py rrolo[1,2-a]pyrazine-2-carboxamide], the “Degradation of substrate protein RSK2 (substrate protein remaining %)” value on RSK2 is listed as “A (A is defined as 0% ≤ substrate protein remaining % ≤ 80%)”. Also, the “Degradation of substrate protein RSK1 (substrate protein remaining %)” value at RSK1 is listed as “A (A is defined as 0% ≤ substrate protein remaining % ≤ 80%)”.

Take `C[C@@H]1CNC(=O)c2cc3ccc(C(=O)Nc4cnn(Cc5ccc(N6CCN(Cc7cc(N8CCC(=O)NC8=O)cnc7F)CC6)cc5)c4)nc3n21` [GT-07935, (R)-N-(1-(4-(4-((5-(2,4-dioxotetrahydropyrimidin-1(2H)-yl)-2-fluoropyridin-3-yl)methyl)piperazin-1-yl)benzyl)-1H-pyrazol-4-yl)-9-methyl-6-oxo-6,7,8,9-tetrahydropyrido[3',2':4,5]py rrolo[1,2-a]pyrazine-2-carboxamide]: the “Degradation of substrate protein RSK2 (substrate protein remaining %)” value at RSK2 is recorded as “B (B is defined as substrate protein remaining % > 80%)”. On RSK1, the “Degradation of substrate protein RSK1 (substrate protein remaining %)” value is “A (A is defined as 0% ≤ substrate protein remaining % ≤ 80%)”.

These data come from patent EP4678638A1, “NEW E3 UBIQUITIN LIGASE LIGAND, PROTEIN DEGRADATION AGENT AND USE THEREOF” (priority 2023, dated 2024).
